From patent US9718794B2, “Crystalline forms of tyrosine kinase inhibitors and their salts” (Purdue Pharma L.P., priority 2013, dated 2017)

Columns and labels:
[1] = molecular target: T1, TrkA (human full length) (Homo sapiens, UniProt P04629); assay: PathHunter whole cell functional assay, NGF stimulated TrkA activation (U2OS); format: cell-based; conditions: U2OS PathHunter cells, mean of triplicate; read-out: cellular IC50, NGF stimulated TrkA activation
T1 construct: expressed recombinantly on the intracellular C-terminus of TrkA (human full length); host or cells: U2OS
From the text: Compound inhibition in a live, whole cell based functional assay: There are several methods to measure whole length TrkA activation stimulated by its natural ligand or agonist NGF in live cells. For example, the PathHunter Profiling services offered by DiscoveRx (Fremont, Calif.). The PathHunter technology is an adaptation of enzyme fragment complementation that provides a novel, generic functional cell-based assay format for detecting protein-protein interaction. In this cell-based assay approach, with U2OS cell background, a small peptide epitope (PK) is expressed recombinantly on the intracellular C-terminus of TrkA (human full length). This is co-expressed with a larger sequence, termed enzyme acceptor (EA) that is attached to a cytoplasmic protein SHC1 which will interact with TrkA intracellularly. NGF induced activation of TrkA receptor causes either homo- or hetero-dimerization of TrkA resulting in cross-phosphorylation. The SHC1-EA fusion protein then binds the phosphorylated TrkA receptor forcing complementation of the PK and EA fragment. This interaction generates an active beta-galactosidase enzyme, which is detected using a chemiluminescent substrate.

[2] = tested on: CCI neuropathic pain (mechanical allodynia); assay: Chronic constriction injury (CCI) model of neuropathic pain in rat; format: in vivo; conditions: for observed side effects in dosed CCI-rats: single oral dose
From the text: Chronic Constriction Injury (CCI) Model of Neuropathic Pain in Rat. The CCI model is one of the most commonly used mono-neuropathic pain model firstly described in details by Bennett and Xie (Bennett CJ, Xie YK. Pain. 1988;33(1):87-107). It mimics important clinical chronic pain symptoms such as mechanical allodynia and thermal hyperalgesia, Chronic constriction injury of the sciatic nerve was produced by tying four loose ligatures around the left sciatic nerve according to the method of Bennett and. Xie. […] Calibrated von Frey filaments were used to determine the lowest mechanical (tactile) threshold required to evoke a brisk paw withdrawal reflex in the rat hindpaws. Rats were allowed to acclimatize in wire mesh cages for 15-20 min prior to von Frey testing. Assessment of paw withdrawal thresholds (PWTs) using von Frey filaments was undertaken prior to CCI-surgery (pre-surgery baseline on day 0). Before the drug dosing on day 14, the pre-dose baseline was recorded for each rat. […] Drug-naïve CCI-rats (n=4 - 6 per group) were used. The oral (PO) gavage vehicle was either 10% (w/v) Povidone K25 in water for PO dosing, or 18% (w/v) CrosPovidone in water for PO dosing, or 0.5% CMC-Na/0.1% Tween 80in distilled water for PO dosing. The positive control gabapentin was dissolved in the vehicle and orally given at 100 mg/kg (by oral gavage). Test article was dissolved or suspended in the vehicle and orally given at 25, 50, 100 and 150 mg/kg. Each CCI-rat was administered a single oral dose of test article, gabapentin or vehicle control, 2 hours before assessment of PWT.

[3] = Rat pharmacokinetics (IV and PO, plasma); format: in vivo; conditions: male, CD IGS, PO 100 mg/kg, mean
Protocol: Rat Pharmacokinetics. Compound I was dosed to nonfasted male CD IGS rats (weighting 180-250 g, Charles River Laboratories) by single intravenous (IV, n=3/group) or oral gavage (PO, n=4/group, including control rat group for drug-free blood and brain collection) administration at a nominal dose levels of 3 mg/kg (IV) or 5 mg/kg (IV) and 10, 50, 100 mg/kg (PO) respectively. Compound was formulated in either DMSO/Solutol® HS 15/phosphate buffered saline, pH 7.4 (PBS) for both IV and PO dosing, or 10% (w/v) Povidone K12 in water for IV dosing or 10% (w/v) Povidone K25 in water for PO dosing, or 18% (w/v) CrosPovidone in water for PO dosing. An intravenous profile was obtained by taking serial or terminal blood samples at 3, 10, 30, 60, 120, 240, 360, 1440 min post dose. An oral profile was obtained by taking serial or terminal blood samples at 10, 30, 60, 120, 240, 360, 480, 1440 min post dose.
Plasma Sample Collection from Rats. Animals were sedated under general inhalant anesthesia (3% isoflurane) for blood collection by cardiac puncture. […]
Plasma and brain samples were subjected to quantitative analysis by LC-MS/MS using compound-specific mass transitions. […] The concentrations of the test compound in brain (ng/g brain tissue) and in plasma (ng/mL) as well as the ratio of the brain concentration and the plasma concentration at each time point were determined and reported.

[4] = tested on: CFA-induced inflammatory pain; assay: Rat CFA-induced inflammatory pain model; format: in vivo; conditions: 50 μL of 1 mM s.c. into the paw 3 hours after CFA
Protocol: Rat CFA-induced Inflammatory Pain Model. Hyperalgesia was induced by subcutaneously injecting 50 μL of CFA (Sigma-Aldrich, St. Louis, Mo., USA) into the plantar surface of the left hind paw of the rats using a 30-gauge hypodermic needle under sevoflurane anesthesia. The classical signs of inflammation, including edema and redness, for up the last day of tests were recorded. To assess the effect of test article on CFA-induced inflammatory pain, the rats were anesthetized with sevoflurane 3 hours after CFA injection and then injected 50 μL of either 1 mM test article (n=6) or Saline (n=4) subcutaneously (S.C.) into the same site as the CFA injection, using a 30-gauge hypodermic needle under sevoflurane anesthesia, according to published method (Ueda K., et al, J Pharmacol. Sci., 2010; 112(4):438-43). Paw withdrawal latencies (thermal hyperalgesia) are measured before and at […] 2, 4, and 7 days after CFA injection. Mechanical thresholds were also measured in the same way with either Formula 1 compound (n=6) or Saline (n=4) at similar different time points (for example, 1, 3 hour and 3 days). The noxious heat and mechanical thresholds were separately measured in each group of rats. The threshold was measured 3-5 times in each rat and then averaged.

[5] = tested on: SNL neuropathic pain (mechanical allodynia); assay: Spinal nerve ligation (SNL) mono-neuropathic pain model in rat; format: in vivo; conditions: SNL rats, oral administration
Protocol: Spinal Nerve Ligation (SNL) Mono-Neuropathic Pain Model in Rat. The surgical procedure will be performed according to the method firstly described by Kim and Chung (Kim SH, Chung JM. Pain. 1992;50(3):355-63.). This procedure will result in tactile allodynia in the left hindpaw. […] The dose-reverse anti-allodynia effects of test compound: on day 14 after surgery, rats were treated with test article at one of four doses, vehicle or positive control by oral gavage, and PWT was determined by calibrated von Frey filaments at time points of 0 (right before the drug dosing, Pre-Dose Baseline), 0.5, 1, 2, 4 and 6 hr. The anti-allodynia effects of repeated administration of test article: Administration of test article was started on day 7 after surgery, once a day for 7 days. PWT was determined by calibrated von Frey filaments, 2 hour after test article dosing each day. After 7 days dosing, the measurement were continued, every other day without compound dosing for another 7 days. PWT was determined at the time points as given above.

[6] = Accelerated stability test (XRPD and Raman); format: physicochemical; conditions: 1 week
Protocol: X-ray Powder Diffraction (XRPD). Approximately 2 mg of sample was gently compressed on the XRPD zero back ground single obliquely cut silica sample holder. The sample was then loaded into a D/MAX 2200 X-ray powder diffractometer (Rigaku) or a Philips X-Pert MPD diffractometer and analyzed using the following experimental conditions (Tube anode: Cu; Generator tension: 40 kV; Tube current: 40 mA; Wavelength alphal: 1.54056 Å; Wavelength alpha2: 1.5444 Å; Start angle [2 theta]: 5; End angle [2 theta]: 50; and Continuous scan). For suspected novel forms a slightly slower scan speed was used over a range of 4-40°2θ.
Raman spectroscopy. Samples were analyzed by a Nicolet Almega XR Dispersive Raman Microscope for its Raman spectrum using the following conditions (Exposure Time: 1.0 s; Acquisition No: 10; Pinhole Size: 25, 50 or 100 μm; Wavelength range: 2000˜300 cm^−1 (single grating); Laser: He-Ne 780 nm 100% power; Objective: 20×/0.40 or 50×/0.75 (magnifier/numerical aperture number)). Then the measured Raman spectra were corrected by baseline subtraction using the software OMNIC™v7.3.

T1 sequence (P04629 33-796): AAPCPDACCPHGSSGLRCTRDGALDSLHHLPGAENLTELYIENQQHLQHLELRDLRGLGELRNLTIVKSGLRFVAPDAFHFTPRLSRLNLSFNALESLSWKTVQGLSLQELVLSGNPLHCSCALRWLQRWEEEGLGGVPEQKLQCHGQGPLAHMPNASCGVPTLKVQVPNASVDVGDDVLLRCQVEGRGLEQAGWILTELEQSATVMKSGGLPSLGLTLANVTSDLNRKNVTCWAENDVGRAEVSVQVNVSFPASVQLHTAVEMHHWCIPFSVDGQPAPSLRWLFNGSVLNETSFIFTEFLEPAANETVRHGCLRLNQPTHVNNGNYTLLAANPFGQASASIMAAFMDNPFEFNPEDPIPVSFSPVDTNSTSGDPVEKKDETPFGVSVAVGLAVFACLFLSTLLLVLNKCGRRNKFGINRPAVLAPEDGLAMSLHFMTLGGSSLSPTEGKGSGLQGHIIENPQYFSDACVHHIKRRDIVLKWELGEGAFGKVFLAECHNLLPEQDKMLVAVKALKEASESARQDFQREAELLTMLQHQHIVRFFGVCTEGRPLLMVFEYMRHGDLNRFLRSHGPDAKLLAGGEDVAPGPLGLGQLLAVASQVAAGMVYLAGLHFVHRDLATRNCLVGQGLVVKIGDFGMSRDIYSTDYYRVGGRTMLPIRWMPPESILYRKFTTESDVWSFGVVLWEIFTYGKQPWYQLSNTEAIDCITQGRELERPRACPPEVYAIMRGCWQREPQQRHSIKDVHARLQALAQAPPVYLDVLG

| SMILES | IC50 [1] [nM] | effect on mechanical allodynia (FIG. 2) ([2]; CCI rats, single oral dose 25, 50, 100 and 150 mg/kg, PWT 2 hours after dosing) | observed side effects in dosed CCI-rats [2] | bioavailability [3] [%] | analgesic effect (FIG. 1) [4] | effect on mechanical allodynia [5] | stability by XRPD and Raman ([6]; 40° C./75% RH) | stability by XRPD and Raman ([6]; 80° C.) |
| --- | --- | --- | --- | --- | --- | --- | --- | --- |
| O=C(O)c1ccc(Nc2cc(N3CCN(C4CCCCC4)CC3)c3noc4c3c2C(=O)c2ccccc2-4)cc1 [Compound C] | ~50 | – | – | – | – | – | – | – |
| O=C([O-])c1ccc(Nc2cc(N3CCN(C4CCCCC4)CC3)c3noc4c3c2C(=O)c2ccccc2-4)cc1.[Na+] [Compound I, Sodium 4-((3-(4-cyclohexylpiperazin-1-yl)-6-oxo-6H-anthra[1,9-cd]isoxazol-5-yl)amino)benzoate] | – | significantly reduced mechanical allodynia | no such effect or other abnormality was observed | ~100 | efficacious in relieving the pain | significantly reduced mechanical allodynia | no instability | no instability |
| NCC1(CC(=O)O)CCCCC1 [gabapentin, reference compound] | – | – | drowsiness or motor incoordination | – | – | – | – | – |
